{
  "source": "patent US11970473B2",
  "about": "“Nootkatone derivatives and methods of using the same” (Arkansas State University—Jonesboro, priority 2021, dated 2024)",
  "key": {"[1]": {"tested_on": "MALME-3M", "assay": "NCI-60 cancer screen", "type": "cell-based, human", "details": "Melanoma, 10 μM"}, "[2]": {"tested_on": "EKVX", "assay": "NCI-60 cancer screen", "type": "cell-based, human", "details": "Non-Small Cell Lung Cancer, 10 μM"}, "[3]": {"tested_on": "HOP-92", "assay": "NCI-60 cancer screen", "type": "cell-based, human", "details": "HOP-92, Non-Small Cell Lung Cancer; 10 μM"}, "[4]": {"tested_on": "HOP-62", "assay": "NCI-60 cancer screen", "type": "cell-based, human", "details": "HOP-62, Non-Small Cell Lung Cancer; 10 μM"}, "[5]": {"tested_on": "Enterococcus faecium ATCC 700221 (Em21)", "assay": "Minimal inhibitory concentration (MIC) assay", "type": "cell-based", "summary_of_the_method": "(§1)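 MICs were determined by the CLSI-recommended standard broth microdilution method. Compounds started at 50 μg/ml and were serially diluted 2-fold. Each determination was run in triplicate.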"}, "[6]": {"tested_on": "S. aureus ATCC 33592 (Sa92)", "assay": "Minimal inhibitory concentration (MIC) assay", "type": "cell-based", "details": "Staphylococcus aureus, ATCC33592; S. aureus ATCC 33592, antibiotic-resistant strain; read-out: Antimicrobial activity (MIC) Sa92", "summary_of_the_method": "as §1"}, "[7]": {"tested_on": "B. subtilis ATCC 6623 (Bs)", "assay": "Minimal inhibitory concentration (MIC) assay", "type": "cell-based", "details": "Bacillus subtilis, ATCC6623; B. subtilis ATCC 6623; read-out: Antimicrobial activity (MIC) Bs", "summary_of_the_method": "as §1"}, "[8]": {"tested_on": "S. aureus ATCC 25923 (Sa23)", "assay": "Minimal inhibitory concentration (MIC) assay", "type": "cell-based", "details": "Staphylococcus aureus, ATCC25923; S. aureus ATCC 25923, antibiotic susceptible strain; read-out: Antimicrobial activity (MIC) Sa23", "summary_of_the_method": "as §1"}, "[9]": {"tested_on": "S. aureus ATCC 33591 (Sa91)", "assay": "Minimal inhibitory concentration (MIC) assay", "type": "cell-based", "details": "Staphylococcus aureus, ATCC33591; S. aureus ATCC 33591, antibiotic-resistant strain; read-out: Antimicrobial activity (MIC) Sa91", "summary_of_the_method": "as §1"}, "[10]": {"tested_on": "S. aureus BAA-2312 (Sa12)", "assay": "Minimal inhibitory concentration (MIC) assay", "type": "cell-based", "details": "Staphylococcus aureus, BAA2312; S. aureus BAA-2312, antibiotic-resistant strain; read-out: Antimicrobial activity (MIC) Sa12", "summary_of_the_method": "as §1"}, "[11]": {"tested_on": "S. epidermidis 700296 (Se)", "assay": "Minimal inhibitory concentration (MIC) assay", "type": "cell-based", "details": "Staphylococcus epidermidis, S. epidermidis 700296; read-out: Antimicrobial activity (MIC) Se", "summary_of_the_method": "as §1"}, "[12]": {"tested_on": "Enterococcus faecalis ATCC 29212 (Es12)", "assay": "Minimal inhibitory concentration (MIC) assay", "type": "cell-based", "details": "ATCC29212; Enterococcus faecalis ATCC 29212; read-out: Antimicrobial activity (MIC) Es12", "summary_of_the_method": "as §1"}, "[13]": {"tested_on": "S. aureus ATCC 700699 (Sa99)", "assay": "Minimal inhibitory concentration (MIC) assay", "type": "cell-based", "details": "Staphylococcus aureus, ATCC700699; S. aureus ATCC 700699, antibiotic-resistant strain; read-out: Antimicrobial activity (MIC) Sa99", "summary_of_the_method": "as §1"}, "[14]": {"tested_on": "S. aureus strains", "assay": "MIC, summary over S. aureus strains", "type": "cell-based", "details": "Staphylococcus aureus; lowest MIC over S. aureus strains; read-out: minimum inhibitory concentration (MIC) value as low as", "procedure": "Minimal inhibitory concentration (MIC) assay The standard microdilution method recommended by the Clinical and Laboratory Standards Institute (CLSI) was used to determine the MIC of the antibiotics. The starting concentration of compounds was 50 μg/ml and 2-fold dilution was done down the 96 honeycomb well plate column. The MIC assay was conducted in triplicates."}, "[15]": {"tested_on": "HCT-15", "assay": "NCI-60 cancer screen", "type": "cell-based, human", "details": "HCT-15, Colon Cancer; 10 μM"}, "[16]": {"tested_on": "DU-145", "assay": "NCI-60 cancer screen", "type": "cell-based, human", "details": "DU-145, Prostate Cancer; 10 μM"}, "[17]": {"tested_on": "CAKI-1", "assay": "NCI-60 cancer screen", "type": "cell-based, human", "details": "CAKI-1, Renal Cancer; 10 μM"}, "[18]": {"tested_on": "OVCAR-5", "assay": "NCI-60 cancer screen", "type": "cell-based, human", "details": "OVCAR-5, Ovarian Cancer; 10 μM"}, "[19]": {"tested_on": "T-47D", "assay": "NCI-60 cancer screen", "type": "cell-based, human", "details": "Breast Cancer, 10 μM"}, "[20]": {"tested_on": "NCI-H23", "assay": "NCI-60 cancer screen", "type": "cell-based, human", "details": "NCI-H23, Non-Small Cell Lung Cancer; 10 μM"}, "[21]": {"tested_on": "SW-620", "assay": "NCI-60 cancer screen", "type": "cell-based, human", "details": "SW-620, Colon Cancer; 10 μM"}, "[22]": {"tested_on": "NCI-H460", "assay": "NCI-60 cancer screen", "type": "cell-based, human", "details": "NCI-H460, Non-Small Cell Lung Cancer; 10 μM"}, "[23]": {"tested_on": "PC-3", "assay": "NCI-60 cancer screen", "type": "cell-based, human", "details": "PC-3, Prostate Cancer; 10 μM"}, "[24]": {"tested_on": "HCT-116", "assay": "NCI-60 cancer screen", "type": "cell-based, human", "details": "HCT-116, Colon Cancer; 10 μM"}, "[25]": {"tested_on": "KM12", "assay": "NCI-60 cancer screen", "type": "cell-based, human", "details": "KM12, Colon Cancer; 10 μM"}, "[26]": {"tested_on": "SK-MEL-28", "assay": "NCI-60 cancer screen", "type": "cell-based, human", "details": "SK-MEL-28, Melanoma; 10 μM"}, "[27]": {"tested_on": "SN12C", "assay": "NCI-60 cancer screen", "type": "cell-based, human", "details": "Renal Cancer, 10 μM"}, "[28]": {"tested_on": "SK-OV-3", "assay": "NCI-60 cancer screen", "type": "cell-based, human", "details": "SK-OV-3, Ovarian Cancer; 10 μM"}},
  "data": [
    {"molecule": "C=C(C)[C@@H]1CC=C2c3sc(-c4ccc(O)cc4)nc3C[C@@H](C)[C@]2(C)C1", "note": "[Compound 15, 4-[(5R,5aS,7R)-7-isopropenyl-5,5a-dimethyl-5,6,7,8-tetrahydro-4H-benzo[g][1,3]benzothiazol-2-yl]phenol]", "values": [
      {"measurement": "Growth Percent", "setting": "[1]", "result": 99.38, "unit": "%"},
      {"measurement": "Growth Percent", "setting": "[2]", "result": 101.37, "unit": "%"},
      {"measurement": "Growth Percent", "setting": "[3]", "result": 96.54, "unit": "%"},
      {"measurement": "Growth Percent", "setting": "[4]", "result": 95.96, "unit": "%"},
      {"measurement": "Antimicrobial activity (MIC) Em21", "setting": "[5]; Enterococcus faecium ATCC 700221", "result": 3.12, "unit": "µg/mL"},
      {"measurement": "MIC", "setting": "[5]; Enterococcus faecium, ATCC700221, Enterococcus faecium ATCC 700221, read-out: Antimicrobial activity (MIC) Em21", "result": 3.12, "unit": "µg/mL"},
      {"measurement": "MIC", "setting": "[6]", "result": 6.25, "unit": "µg/mL"},
      {"measurement": "MIC", "setting": "[7]", "result": 6.25, "unit": "µg/mL"},
      {"measurement": "MIC", "setting": "[8]", "result": "> 100", "unit": "µg/mL"},
      {"measurement": "MIC", "setting": "[9]", "result": 6.2, "unit": "µg/mL"},
      {"measurement": "MIC", "setting": "[10]", "result": 12.5, "unit": "µg/mL"},
      {"measurement": "MIC", "setting": "[11]", "result": 6.25, "unit": "µg/mL"},
      {"measurement": "MIC", "setting": "[12]", "result": 12.5, "unit": "µg/mL"},
      {"measurement": "MIC", "setting": "[13]", "result": 12.5, "unit": "µg/mL"},
      {"measurement": "MIC", "setting": "[14]", "result": 6.25, "unit": "µg/mL"},
      {"measurement": "Growth Percent", "setting": "[15]", "result": 100.28, "unit": "%"},
      {"measurement": "Growth Percent", "setting": "[16]", "result": 104.97, "unit": "%"},
      {"measurement": "Growth Percent", "setting": "[17]", "result": 99.88, "unit": "%"},
      {"measurement": "Growth Percent", "setting": "[18]", "result": 106.63, "unit": "%"},
      {"measurement": "Growth Percent", "setting": "[19]", "result": 84.40, "unit": "%"},
      {"measurement": "Growth Percent", "setting": "[20]", "result": 94.71, "unit": "%"},
      {"measurement": "Growth Percent", "setting": "[21]", "result": 103.38, "unit": "%"},
      {"measurement": "Growth Percent", "setting": "[22]", "result": 104.69, "unit": "%"},
      {"measurement": "Growth Percent", "setting": "[23]", "result": 94.38, "unit": "%"},
      {"measurement": "Growth Percent", "setting": "[24]", "result": 114.01, "unit": "%"},
      {"measurement": "Growth Percent", "setting": "[25]", "result": 103.49, "unit": "%"},
      {"measurement": "Growth Percent", "setting": "[26]", "result": 106.43, "unit": "%"},
      {"measurement": "Growth Percent", "setting": "[27]", "result": 94.92, "unit": "%"},
      {"measurement": "Growth Percent", "setting": "[28]", "result": 109.13, "unit": "%"}
    ]}
  ]
}
